Results from patent publication US20130131136A1, “NOVEL METHODS FOR PREDICTING THE RESPONSIVENESS OF A PATIENT AFFECTED WITH A TUMOR TO A TREATMENT WITH A TYROSINE KINASE INHIBITOR” (priority 2010, published 2013).

Experiments:
[1] = tested on: advanced metastatic renal cell clear cell carcinoma; test: Sutent treatment of patients with advanced metastatic renal cell clear cell carcinoma, response after the 3 months therapy course (RECIST criteria); assay type: in vivo, human; settings: of 50 patients analyzed, 50 mg/day for 4 weeks followed by 2 weeks off
Procedure: All patients were diagnosed with advanced metastatic renal cell clear cell carcinoma and subjected to surgery for removal of the primary tumor. The tumor tissue was fixed in formaldehyde, and embedded in paraffin. Sections were cut and stained for the FSH receptor using the monoclonal antibody FSHR323, followed by a secondary HRP- or Alexa555-coupled antibody. The density of vessels in the tumor tissue was determined by microscopy using a 20× objective. Starting at the border between the normal and the tumor tissue and moving towards the interior of the tumor, digital photographs were taken of every other field. The number of FSHR-positive vessels in each image was counted in 20 images from each tumor.
The patients were subjected to Sutent treatment for >=3 months with a dose of 50 mg/day for 4 weeks followed by 2 weeks off. Depending on the effects of the treatment, at the end of the 3 months therapy course the patients were designated as “responsive”, “stable” or “non-responsive” according to the criteria described in [Eisenhauer et al., 2009]. The patients were categorized as “responsive” if there was at least a 30% decrease in the sum of the diameters of the lesions, and “non-responsive” if the sum of the lesion sizes increased by at least 20%.

[2] = tested on: metastatic renal cell carcinoma (mRCC); settings: cited from earlier work
RCC = settings: BEV alone; cited from earlier work

Compound | number of patients "non-responsive" (sum of the lesion sizes increased by at least 20%) [1] [patients] | number of patients "responsive" (at least 30% decrease in the sum of the diameters of the lesions) [1] [patients] | number of patients "stable" [1] [patients] | fraction of RCC patients who respond to the treatment ([2]; RCC patients) | reduction of the risk of relapse (progression-free survival) ([2]; first-line therapy, mRCC, compared to interferon-α) [%] | adverse side effects ([2]; patients, typical treatment session 3 months) | activity in patients with RCC (RCC)
CCN(CC)CCNC(=O)c1c(C)[nH]c(/C=C2\C(=O)Nc3ccc(F)cc32)c1C [Sutent, N-[2-(diethylamino)ethyl]-5-[(Z)-(5-fluoro-1,2-dihydro-2-oxo-3H-indol-3-ylidine)methyl]-2,4-dimethyl-1H-pyrrole-3 carboxamide] | 17 | 15 | 18 | about one third | 58 | significant adverse side effects | –
BEV: a monoclonal humanized antibody against circulating VEGF | – | – | – | – | – | – | showed activity only as second-line treatment and only in cytokine-refractory patients
